Key:
[1] = biological target: T1, ABCA3 (Homo sapiens, UniProt Q99758); assay: Correlation of ABCA3 expression with drug sensitivity across the NCI-60; assay type: cell-based; details: Pearson correlation of ABCA3 expression with sensitivity of the 60 cell lines; 1429 compounds; inverse, p < 0.0001
T1 construct: profiled in 60 diverse cancer cell lines (the NCI-60) using real-time RT-PCR; endogenous in cells; host or cells: NCI-60 human cancer cell lines
Experimental: (§1) Expression levels are measured by real-time quantitative RT-PCR using the LightCycler RNA Amplification SYBR Green kit and a LightCycler machine (Roche Biochemicals, Indianapolis, Ind.). […] When possible, the amplicons are designed to encompass exon-intron boundaries to avoid amplification of genomic DNA. Since the Syber Green assay detects accumulation of double stranded DNA, primers are selected (from a battery consisting of about 200 primers) that amplified a single product of the correct size.
(§2) RT-PCR is carried out on 150 ng total RNA, in the presence of 250 nM specific primers. Following reverse transcription (20 min at 50° C.), the PCR reaction consists of 45 cycles of denaturation (15 sec at 95° C.), annealing (30 sec at 58° C.), and elongation (30 sec at 72° C.). No-template (water) reaction mixtures are prepared as negative controls.
(§3) During PCR amplification, fluorescence emission is measured and recorded in real time by the LightCycler. Crossing point values are calculated, using the LightCycler software package, by the Fit Points analysis method, with baseline fluorescence set at 1. The SyberGreen assay measures accumulation of double-stranded products, and the appearance of primer dimers limits quantitation at high cycle numbers. The specificity of amplified products is verified by melting-curve analysis and agarose gel electrophoresis (not shown). The raw results are expressed as number of cycles to reach the crossing point. If the desired product is not detected, the corresponding value is adjusted to crossing points indicating no expression. To assess the contribution of experimental artifacts, selected cell lines are assessed in replicate.
(§4) The two are combined to form a joint dataset that includes 1429 compounds.
(§5) To determine quantitatively how well the 47 genes cluster the cell lines by their tissues of origin, a statistical method is employed wherein the kappa statistic is used to indicate how well the observed clusters correspond to the nine tissue-of-origin classifications. […] To control the overall false type 1 error rate, both a step-down procedure (Westfall and Young, 1993, Resampling-Based Multiple Testing: Examples and Methods for p-value Adjustment (New York: Wiley)) and a step-up procedure (Reiner et al., 2003, Bioinformatics 19:368-375) were employed to adjust for multiple testing of all 47 genes simultaneously. In the Benjamini-Hochberg procedure the p-values are computed in the standard way by permutation, assuming that all distributions are exchangeable: the number of values in the permuted data with correlations over a threshold, divided by the number of compounds and by the number of permutations. In this analysis, the False Discovery Rate (q-value) at which each compound would be declared was calculated using the step-up procedure for positively correlated test statistics (again true because all correlations being compared are computed against the same ABC gene): in this procedure the first q-value for the largest correlation is the Bonferroni-corrected p-value for that gene; then further q-values are calculated as qj=max(pj*1429/j, qj-1). This procedure limits the expected proportion of false positives in the list 1, . . . , j to at most qj.

[2] = biological target: T2, ABCC3 (Homo sapiens, UniProt O15438); assay: Correlation of ABCC3 expression with drug sensitivity across the NCI-60; assay type: cell-based; details: Pearson correlation of ABCC3 expression with sensitivity of the 60 cell lines; 1429 compounds; inverse, p < 0.0001
T2 construct: profiled in 60 diverse cancer cell lines (the NCI-60) using real-time RT-PCR; endogenous in cells; host or cells: NCI-60 human cancer cell lines
T2 sequence (O15438 whole entry): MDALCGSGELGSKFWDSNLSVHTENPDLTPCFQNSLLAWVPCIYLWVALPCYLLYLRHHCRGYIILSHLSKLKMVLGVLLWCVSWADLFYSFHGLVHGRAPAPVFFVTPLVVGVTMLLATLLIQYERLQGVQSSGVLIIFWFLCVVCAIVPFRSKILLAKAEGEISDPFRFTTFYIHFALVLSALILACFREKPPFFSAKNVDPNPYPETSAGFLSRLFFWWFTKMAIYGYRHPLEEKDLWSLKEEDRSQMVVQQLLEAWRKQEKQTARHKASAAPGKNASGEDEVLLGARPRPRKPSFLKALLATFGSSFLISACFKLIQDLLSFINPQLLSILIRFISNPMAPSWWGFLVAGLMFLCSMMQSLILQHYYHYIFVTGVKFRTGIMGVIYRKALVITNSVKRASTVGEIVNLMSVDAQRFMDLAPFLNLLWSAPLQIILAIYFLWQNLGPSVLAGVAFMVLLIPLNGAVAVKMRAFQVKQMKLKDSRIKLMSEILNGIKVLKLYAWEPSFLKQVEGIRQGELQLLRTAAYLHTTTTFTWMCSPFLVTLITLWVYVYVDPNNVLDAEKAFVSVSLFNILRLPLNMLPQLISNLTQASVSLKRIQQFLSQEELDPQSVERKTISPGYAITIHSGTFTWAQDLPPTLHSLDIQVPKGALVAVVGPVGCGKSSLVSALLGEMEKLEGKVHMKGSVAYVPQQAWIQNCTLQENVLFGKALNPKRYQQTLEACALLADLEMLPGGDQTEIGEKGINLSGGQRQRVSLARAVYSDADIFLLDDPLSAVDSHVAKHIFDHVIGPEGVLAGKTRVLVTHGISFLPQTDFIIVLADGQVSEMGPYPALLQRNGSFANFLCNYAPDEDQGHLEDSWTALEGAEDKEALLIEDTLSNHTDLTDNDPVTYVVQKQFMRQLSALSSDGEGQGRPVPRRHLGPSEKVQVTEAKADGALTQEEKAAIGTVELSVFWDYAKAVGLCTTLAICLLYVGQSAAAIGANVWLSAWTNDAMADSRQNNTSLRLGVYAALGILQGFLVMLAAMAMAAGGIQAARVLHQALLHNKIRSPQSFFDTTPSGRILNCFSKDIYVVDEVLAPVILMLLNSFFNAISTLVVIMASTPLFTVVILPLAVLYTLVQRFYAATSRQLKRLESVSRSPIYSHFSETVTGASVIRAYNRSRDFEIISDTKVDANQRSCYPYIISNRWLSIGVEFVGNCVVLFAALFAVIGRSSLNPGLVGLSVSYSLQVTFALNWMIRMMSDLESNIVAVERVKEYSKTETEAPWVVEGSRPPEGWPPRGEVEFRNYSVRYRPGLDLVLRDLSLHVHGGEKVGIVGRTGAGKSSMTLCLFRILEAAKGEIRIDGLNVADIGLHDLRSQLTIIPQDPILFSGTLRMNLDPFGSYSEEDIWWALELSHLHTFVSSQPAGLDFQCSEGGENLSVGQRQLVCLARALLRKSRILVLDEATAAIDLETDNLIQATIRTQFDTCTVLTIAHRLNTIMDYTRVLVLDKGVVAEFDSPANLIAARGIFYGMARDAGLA
Experimental: as §1, §2, §3, §4, §5

[3] = biological target: T3, ABCA12 (Homo sapiens, UniProt Q86UK0); assay: Correlation of ABCA12 expression with drug sensitivity across the NCI-60; assay type: cell-based; details: Pearson correlation of ABCA12 expression with sensitivity of the 60 cell lines; 1429 compounds; inverse, p < 0.0001
T3 construct: profiled in 60 diverse cancer cell lines (the NCI-60) using real-time RT-PCR; endogenous in cells; host or cells: NCI-60 human cancer cell lines
Experimental: (§6) Expression levels are measured by real-time quantitative RT-PCR using the LightCycler RNA Amplification SYBR Green kit and a LightCycler machine (Roche Biochemicals, Indianapolis, Ind.). Specific oligonucleotide probes are designed for each of the ABC transporters using DNAStar Primer Select (DNASTAR Inc.), and they may be synthesized at Lofstrand Laboratories (Gaithersburg, Md.). When possible, the amplicons are designed to encompass exon-intron boundaries to avoid amplification of genomic DNA. Since the Syber Green assay detects accumulation of double stranded DNA, primers are selected (from a battery consisting of about 200 primers) that amplified a single product of the correct size.
as §2, §3, §4
(§7) To control the overall false type 1 error rate, both a step-down procedure (Westfall and Young, 1993, Resampling-Based Multiple Testing: Examples and Methods for p-value Adjustment (New York: Wiley)) and a step-up procedure (Reiner et al., 2003, Bioinformatics 19:368-375) were employed to adjust for multiple testing of all 47 genes simultaneously. […] In this analysis, the False Discovery Rate (q-value) at which each compound would be declared was calculated using the step-up procedure for positively correlated test statistics (again true because all correlations being compared are computed against the same ABC gene): in this procedure the first q-value for the largest correlation is the Bonferroni-corrected p-value for that gene; then further q-values are calculated as qj=max(pj*1429/j, qj-1). […]

[4] = biological target: T4, ABCB5 (Homo sapiens, UniProt Q2M3G0); assay: Correlation of ABCB5 expression with drug sensitivity across the NCI-60; assay type: cell-based; details: Pearson correlation of ABCB5 expression with sensitivity of the 60 cell lines; 1429 compounds; inverse, p < 0.0001
T4 construct: profiled in 60 diverse cancer cell lines (the NCI-60) using real-time RT-PCR; endogenous in cells; host or cells: NCI-60 human cancer cell lines
T4 sequence (Q2M3G0 1-1257): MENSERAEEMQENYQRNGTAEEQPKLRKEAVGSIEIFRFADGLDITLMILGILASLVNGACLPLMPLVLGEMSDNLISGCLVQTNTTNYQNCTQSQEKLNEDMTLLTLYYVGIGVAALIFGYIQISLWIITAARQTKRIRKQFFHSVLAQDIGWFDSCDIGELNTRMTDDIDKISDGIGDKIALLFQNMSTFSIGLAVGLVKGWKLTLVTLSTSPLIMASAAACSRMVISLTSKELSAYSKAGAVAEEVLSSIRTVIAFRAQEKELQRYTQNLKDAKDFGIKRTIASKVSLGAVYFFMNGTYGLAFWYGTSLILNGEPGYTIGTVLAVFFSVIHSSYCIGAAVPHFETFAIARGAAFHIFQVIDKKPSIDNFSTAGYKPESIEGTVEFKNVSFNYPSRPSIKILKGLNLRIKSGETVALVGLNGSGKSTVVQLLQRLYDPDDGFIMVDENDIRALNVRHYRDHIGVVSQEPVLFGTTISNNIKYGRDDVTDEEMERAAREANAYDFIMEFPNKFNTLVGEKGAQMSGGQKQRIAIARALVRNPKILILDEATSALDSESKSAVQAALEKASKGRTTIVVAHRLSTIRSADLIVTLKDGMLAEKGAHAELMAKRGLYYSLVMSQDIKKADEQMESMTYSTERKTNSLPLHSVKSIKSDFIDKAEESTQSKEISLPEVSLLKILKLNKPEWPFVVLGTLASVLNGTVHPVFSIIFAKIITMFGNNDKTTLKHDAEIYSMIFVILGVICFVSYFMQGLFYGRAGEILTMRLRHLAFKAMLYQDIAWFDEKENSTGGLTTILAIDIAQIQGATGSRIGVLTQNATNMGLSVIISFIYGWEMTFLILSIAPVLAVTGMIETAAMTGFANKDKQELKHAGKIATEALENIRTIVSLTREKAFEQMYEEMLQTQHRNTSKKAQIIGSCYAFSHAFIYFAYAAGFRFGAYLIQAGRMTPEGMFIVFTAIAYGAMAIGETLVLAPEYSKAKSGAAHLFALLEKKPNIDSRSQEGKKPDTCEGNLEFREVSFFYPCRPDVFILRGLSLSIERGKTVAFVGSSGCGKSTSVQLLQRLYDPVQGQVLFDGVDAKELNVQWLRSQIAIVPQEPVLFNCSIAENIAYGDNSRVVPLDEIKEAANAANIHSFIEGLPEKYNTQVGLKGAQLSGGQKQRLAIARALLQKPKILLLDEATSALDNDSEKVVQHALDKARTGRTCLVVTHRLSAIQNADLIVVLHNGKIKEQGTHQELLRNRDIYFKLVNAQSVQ
Experimental: as §1, §2, §3, §4
(§8) In the Benjamini-Hochberg procedure the p-values are computed in the standard way by permutation, assuming that all distributions are exchangeable: the number of values in the permuted data with correlations over a threshold, divided by the number of compounds and by the number of permutations. In this analysis, the False Discovery Rate (q-value) at which each compound would be declared was calculated using the step-up procedure for positively correlated test statistics (again true because all correlations being compared are computed against the same ABC gene): in this procedure the first q-value for the largest correlation is the Bonferroni-corrected p-value for that gene; then further q-values are calculated as qj=max(pj*1429/j, qj-1). This procedure limits the expected proportion of false positives in the list 1, . . . , j to at most qj.

[5] = biological target: T5, ABCA1 (Homo sapiens, UniProt O95477); assay: Correlation of ABCA1 expression with drug sensitivity across the NCI-60; assay type: cell-based; details: Pearson correlation of ABCA1 expression with sensitivity of the 60 cell lines; 1429 compounds; inverse, p < 0.0001
T5 construct: profiled in 60 diverse cancer cell lines (the NCI-60) using real-time RT-PCR; endogenous in cells; host or cells: NCI-60 human cancer cell lines
Experimental: as §1, §2, §3, §4, §8

[6] = biological target: T6, ABCA4 (Homo sapiens, UniProt P78363); assay: Correlation of ABCA4 expression with drug sensitivity across the NCI-60; assay type: cell-based; details: Pearson correlation of ABCA4 expression with sensitivity of the 60 cell lines; 1429 compounds; inverse, p < 0.0001
T6 construct: profiled in 60 diverse cancer cell lines (the NCI-60) using real-time RT-PCR; endogenous in cells; host or cells: NCI-60 human cancer cell lines
Experimental: as §6, §2, §3, §4, §7

[7] = biological target: T7, ABCC7 (Homo sapiens, UniProt P13569); assay: Correlation of ABCC7 expression with drug sensitivity across the NCI-60; assay type: cell-based; details: Pearson correlation of ABCC7 expression with sensitivity of the 60 cell lines; 1429 compounds; inverse, p < 0.0001
T7 construct: profiled in 60 diverse cancer cell lines (the NCI-60) using real-time RT-PCR; endogenous in cells; host or cells: NCI-60 human cancer cell lines
T7 sequence (P13569 whole entry): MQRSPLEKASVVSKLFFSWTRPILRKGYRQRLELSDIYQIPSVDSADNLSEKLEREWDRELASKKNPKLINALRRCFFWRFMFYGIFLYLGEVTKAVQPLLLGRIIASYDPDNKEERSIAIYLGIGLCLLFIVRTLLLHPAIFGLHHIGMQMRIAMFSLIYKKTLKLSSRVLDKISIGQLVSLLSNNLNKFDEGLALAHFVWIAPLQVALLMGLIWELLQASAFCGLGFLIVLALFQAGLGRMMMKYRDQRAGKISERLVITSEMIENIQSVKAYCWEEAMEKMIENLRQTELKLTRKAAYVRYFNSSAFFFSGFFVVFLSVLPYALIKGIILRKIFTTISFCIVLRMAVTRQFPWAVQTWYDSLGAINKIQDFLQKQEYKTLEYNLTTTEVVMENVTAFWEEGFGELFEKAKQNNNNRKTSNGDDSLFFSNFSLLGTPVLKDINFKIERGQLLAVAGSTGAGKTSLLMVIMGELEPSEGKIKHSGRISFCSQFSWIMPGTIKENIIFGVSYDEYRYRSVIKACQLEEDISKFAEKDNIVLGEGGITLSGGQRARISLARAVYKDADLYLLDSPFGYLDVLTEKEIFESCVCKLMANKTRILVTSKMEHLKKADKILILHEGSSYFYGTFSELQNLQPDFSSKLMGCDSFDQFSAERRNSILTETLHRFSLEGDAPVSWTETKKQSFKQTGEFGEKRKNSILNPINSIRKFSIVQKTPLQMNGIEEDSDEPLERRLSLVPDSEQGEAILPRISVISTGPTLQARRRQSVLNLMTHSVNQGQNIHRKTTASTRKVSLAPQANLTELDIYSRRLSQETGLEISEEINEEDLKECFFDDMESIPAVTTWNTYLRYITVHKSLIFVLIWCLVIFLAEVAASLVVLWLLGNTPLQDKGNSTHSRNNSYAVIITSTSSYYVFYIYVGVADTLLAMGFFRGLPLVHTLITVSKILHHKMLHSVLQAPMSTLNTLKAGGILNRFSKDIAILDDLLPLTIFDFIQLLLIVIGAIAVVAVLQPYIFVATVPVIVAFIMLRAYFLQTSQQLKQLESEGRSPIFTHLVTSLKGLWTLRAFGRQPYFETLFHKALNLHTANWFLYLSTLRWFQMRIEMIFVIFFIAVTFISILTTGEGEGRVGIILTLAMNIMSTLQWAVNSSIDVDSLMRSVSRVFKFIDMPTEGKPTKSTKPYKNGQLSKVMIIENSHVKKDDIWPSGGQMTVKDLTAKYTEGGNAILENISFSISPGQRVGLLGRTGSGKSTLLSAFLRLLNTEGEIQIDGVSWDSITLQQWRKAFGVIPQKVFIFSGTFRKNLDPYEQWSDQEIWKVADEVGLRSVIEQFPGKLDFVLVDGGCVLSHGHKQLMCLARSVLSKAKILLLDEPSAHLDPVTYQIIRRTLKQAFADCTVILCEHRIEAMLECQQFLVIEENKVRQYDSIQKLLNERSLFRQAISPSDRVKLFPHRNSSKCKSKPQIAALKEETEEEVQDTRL
Experimental: as §1, §2, §3, §4, §5

[8] = biological target: T8, ABCB11 (Homo sapiens, UniProt O95342); assay: Correlation of ABCB11 expression with drug sensitivity across the NCI-60; assay type: cell-based; details: Pearson correlation of ABCB11 expression with sensitivity of the 60 cell lines; 1429 compounds; inverse, p < 0.0001
T8 construct: profiled in 60 diverse cancer cell lines (the NCI-60) using real-time RT-PCR; endogenous in cells; host or cells: NCI-60 human cancer cell lines
Experimental: as §1, §2, §3, §4, §8

[9] = biological target: T9, ABCC1 (Homo sapiens, UniProt P33527); assay: Correlation of ABCC1 expression with drug sensitivity across the NCI-60; assay type: cell-based; details: Pearson correlation of ABCC1 expression with sensitivity of the 60 cell lines; 1429 compounds; inverse, p < 0.0001
T9 construct: profiled in 60 diverse cancer cell lines (the NCI-60) using real-time RT-PCR; endogenous in cells; host or cells: NCI-60 human cancer cell lines
Experimental: as §1, §2, §3, §4, §8

[10] = biological target: ABCB1 (Homo sapiens, UniProt P08183); assay: Correlation of ABCB1 expression with drug sensitivity across the NCI-60
Summary of the method: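 SYBR Green real-time RT-PCR on 150 ng total RNA with 250 nM primers: RT 20 min at 50 °C, then 45 cycles; expression taken as crossing-point cycle number. Correlated with drug sensitivity of 1429 compounds across the cell panel; permutation p-values with step-down and step-up (FDR q-value) multiple-testing correction.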

T1 sequence (Q99758 whole entry): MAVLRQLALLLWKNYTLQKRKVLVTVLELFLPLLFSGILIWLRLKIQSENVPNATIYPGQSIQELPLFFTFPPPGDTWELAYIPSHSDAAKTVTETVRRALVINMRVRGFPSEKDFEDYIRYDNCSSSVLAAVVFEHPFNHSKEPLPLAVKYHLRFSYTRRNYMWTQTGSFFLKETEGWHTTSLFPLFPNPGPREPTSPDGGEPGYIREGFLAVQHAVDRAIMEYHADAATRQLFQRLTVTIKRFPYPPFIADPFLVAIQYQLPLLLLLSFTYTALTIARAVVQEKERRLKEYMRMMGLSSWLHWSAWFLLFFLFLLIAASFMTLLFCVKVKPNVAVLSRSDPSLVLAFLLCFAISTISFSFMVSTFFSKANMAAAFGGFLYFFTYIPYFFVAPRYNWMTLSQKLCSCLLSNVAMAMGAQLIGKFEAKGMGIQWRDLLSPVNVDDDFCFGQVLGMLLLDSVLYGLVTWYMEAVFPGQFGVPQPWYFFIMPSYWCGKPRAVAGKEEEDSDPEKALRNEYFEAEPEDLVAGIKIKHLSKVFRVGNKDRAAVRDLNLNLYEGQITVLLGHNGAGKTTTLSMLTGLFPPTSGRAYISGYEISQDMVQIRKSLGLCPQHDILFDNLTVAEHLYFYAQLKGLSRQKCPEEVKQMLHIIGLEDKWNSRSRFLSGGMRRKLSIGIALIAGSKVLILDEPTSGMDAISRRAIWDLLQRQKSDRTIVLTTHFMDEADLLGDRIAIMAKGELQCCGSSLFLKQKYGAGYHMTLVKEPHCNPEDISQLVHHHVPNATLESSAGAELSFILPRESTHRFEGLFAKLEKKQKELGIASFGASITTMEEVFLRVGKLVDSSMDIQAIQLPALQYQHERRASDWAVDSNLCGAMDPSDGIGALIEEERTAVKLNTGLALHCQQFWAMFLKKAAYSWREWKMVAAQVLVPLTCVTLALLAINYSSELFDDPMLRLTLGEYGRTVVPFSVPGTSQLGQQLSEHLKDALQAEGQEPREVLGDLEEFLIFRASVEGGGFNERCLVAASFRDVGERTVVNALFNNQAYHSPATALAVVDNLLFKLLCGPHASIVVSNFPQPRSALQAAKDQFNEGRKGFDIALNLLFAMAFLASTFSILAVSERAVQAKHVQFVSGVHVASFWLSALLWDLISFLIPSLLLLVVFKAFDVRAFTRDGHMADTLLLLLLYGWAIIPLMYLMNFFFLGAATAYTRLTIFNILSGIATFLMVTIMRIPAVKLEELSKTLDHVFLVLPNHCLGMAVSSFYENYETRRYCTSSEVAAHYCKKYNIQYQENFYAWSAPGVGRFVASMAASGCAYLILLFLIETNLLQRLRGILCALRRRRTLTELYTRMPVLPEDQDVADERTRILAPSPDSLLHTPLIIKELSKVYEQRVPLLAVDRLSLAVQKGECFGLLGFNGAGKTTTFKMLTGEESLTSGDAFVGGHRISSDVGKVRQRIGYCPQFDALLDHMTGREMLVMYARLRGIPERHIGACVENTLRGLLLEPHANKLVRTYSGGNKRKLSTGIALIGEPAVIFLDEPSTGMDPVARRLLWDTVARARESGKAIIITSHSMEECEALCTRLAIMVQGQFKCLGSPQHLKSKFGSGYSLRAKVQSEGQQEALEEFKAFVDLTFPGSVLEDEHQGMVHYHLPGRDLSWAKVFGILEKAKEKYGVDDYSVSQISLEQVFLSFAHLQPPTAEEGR

O=C1C=C(N2CCN(c3ccccn3)CC2)C(=O)c2c(O)ccc(O)c21 [NSC 658142]
Correlation [1]: −0.4017
Correlation [2]: −0.4982

COc1cc2c(cc1O)CC[C@@H]1[C@@H]2CC[C@]2(C)[C@@H](O)CC[C@@H]12 [NSC 659853]
Correlation [3]: −0.5016

CC(=O)Oc1ccc(C2(c3ccc(F)cc3)OC(=O)c3ccccc32)c(C)c1 (centres unmarked) [NSC 671456]
Correlation [4]: −0.3650

CN1N=C(N)c2cn([C@@H]3O[C@H](COP(=O)(O)O)[C@@H](O)[C@H]3O)c3ncnc1c23 [NSC 280594]
Correlation [4]: −0.3477

CN(C)c1ccc(/C=c2/c3ccccc3n3c2cc(-c2ccc(Cl)cc2)[n+]3C)cc1.O=S(=O)([O-])C(F)(F)F [NSC 699479]
Correlation [5]: −0.4141

COC1=C(OC)C(=O)c2cc(C)c(=O)c(C)cc2C1=O [NSC 649666]
Correlation [3]: −0.3757

CC1=C(C(=O)Nc2ccccc2)C(c2ccc(N(C)C)cc2)C(C(=O)Nc2ccccc2)=C(C)N1 [NSC 636092]
Correlation [6]: −0.3977

CC12CCC(CC1)C(C)(C)O2 [NSC 6171]
Correlation [7]: −0.4552

COC(=O)c1ccccc1NC(=O)C(=O)CC(=O)c1ccccc1NC1=CC(=O)C(=O)c2ccccc21 [NSC 641240]
Correlation [3]: −0.5165
Correlation [2]: −0.5829

CC1=CC(=O)C(C)=CC1=O [NSC 15309]
Correlation [8]: −0.4683

CCOC(=O)CNC(=O)NC12CC3CC(CC(C3)C1)C2 [NSC 208914]
Correlation [9]: −0.4950

CC1C(c2ccc3c(c2)OCO3)c2cc3c(cc2OC1N1CCOCC1)OCO3 (centres unmarked) [NSC 666222]
Correlation [9]: −0.3675

COc1cc(C(=O)N[C@H]2CCc3cc(OC)c(OC)c(OC)c3-c3ccc(OC)c(=O)cc32)cc(OC)c1OC [NSC 355256]
Correlation [1]: −0.3769

COc1cc2cc[n+]3c(c2cc1OC)C(=O)c1ccccc1-3 [NSC 627787]
Correlation [7]: −0.5471

OCCO[P+]1(OCCO)n2c3ccc2C(c2ccccc2)=C2C=CC(=N2)C(c2ccccc2)=c2ccc(n21)=C(c1ccccc1)C1=NC(=C3c2ccccc2)C=C1 [NSC 682066]
Correlation [10]: −0.7985
Correlation [5]: −0.3783

COc1cc(CNc2ccc(SC)cc2)cc(OC)c1OC [NSC 650771]
Correlation [6]: −0.3792

CC(C)(C)c1nc2c(o1)C(=Nc1ccc(F)cc1)c1ccccc1C2=O [NSC 626030]
Correlation [7]: −0.5025

CC(=O)O[C@H]1C(=O)[C@@]2(C)[C@H]([C@H](OC(=O)c3ccco3)[C@]3(O)C[C@H](OC(=O)[C@H](O)[C@@H](NC(=O)c4ccccc4)c4ccccc4)C(C)=C1C3(C)C)[C@]1(OC(C)=O)CO[C@@H]1C[C@@H]2O [NSC 673187]
Correlation [1]: −0.3896

CC(=O)NC1=CC(=O)c2cc(C)cc(O)c2C1=O [NSC 658450]
Correlation [2]: −0.5526

Cn1c(=O)nc2n(-c3ccc(Cl)cc3)c3cc(Cl)ccc3nc-2c1=O [NSC 627991]
Correlation [2]: −0.4741

O=C(CC(=O)c1ccccc1NC1=Cc2ccccc2C(=O)C1=O)C(=O)NC1=C(Cl)C(=O)c2ccccc2C1=O [NSC 641245]
Correlation [2]: −0.5702

CN(C)CC1CCC/C(=C\c2ccc(OC(=O)/C=C/c3ccc(Cl)c(Cl)c3)cc2)C1=O.Cl (centres unmarked) [NSC 693443]
Correlation [4]: −0.3300
Pearson's Correlation Coeff [10]: 0.1842
